Measured values: patent US20230097866A1, “BACTERIAL TOPOISOMERASE INHIBITORS DERIVED FROM ISOMANNIDE” (Ohio State Innovation Foundation, priority 2020, published 2023)
≈ marks a conversion by molar mass, not a printed value. Like-named read-outs stand apart in the source and are kept apart here.

Key:
hKCNQ1/hminK = biological target: T1, hKCNQ1/hminK (Homo sapiens, UniProt P51787); assay: KCNQ1/hminK QPatch CiPA assay; type: cell-based; conditions: mean, duplicate, read-out: % Inhibition KCNQ1 (peak current)
T1 construct: expressed in transfected cells
Source text: (§1) Early drug discovery programs commonly assess hERG inhibition as the only indicator of potential cardiovascular safety concerns. Researchers have recently recommended a more rigorous evaluation of multiple cardiac ion channels to provide a more comprehensive cardiovascular risk assessment (Fermini, B., et al., A New Perspective in the Field of Cardiac Safety Testing through the Comprehensive In Vitro Proarrhythmia Assay Paradigm. J. Biomolec. Screening 2016, 21, 1-11). Given the promising initial results for 6, further evaluation was undertaken (in duplicate) in a Comprehensive in vitro Proarrhythmia Assay (CiPA) eight assay panel run on the QPatch HT (Sophion, Denmark) automated patch clamp system at three concentrations (3, 30, and 100 μM). All data were filtered for seal quality, seal drop, and current amplitude. A stock solution of the test compound at 30 mM concentration was prepared in DMSO.
The parameters measured were the maximum outward current evoked on stepping to 60 mV from the test pulse. The peak current amplitude was calculated before and after compound addition and the amount of block was assessed by dividing the Test compound current amplitude by the Control current amplitude. Control is the mean hKCNQ1/hminK current amplitude collected 15 seconds at the end of the control; Test Compound is the mean hKCNQ1/hminK current amplitude collected in the presence of test compound at each concentration. The positive control was chromanol 293B.

[1] = biological target: T2, Cav1.2 (L-type) Human Calcium Ion Channel (Homo sapiens, UniProt Q13936); assay: Cav1.2 (L-type) QPatch CiPA assay; type: cell-based; conditions: mean, duplicate
T2 construct: expressed in transfected cells
Source text: as §1
The parameters measured were the maximum inward current evoked on stepping to 10 mV from the test pulse. The peak current amplitude was calculated before and after compound addition and the amount of block was assessed by dividing the Test compound current amplitude by the Control current amplitude. Control is the mean hCav1.2 current amplitude collected 15 seconds at the end of the control; Test Compound is the mean hCav1.2 current amplitude collected in the presence of test compound at each concentration. The positive control was nifedipine.

[2] = biological target: T3, Nav1.5 Late Current Human Ion Channel (Homo sapiens, UniProt Q14524); type: cell-based; conditions: in presence of 30 nM ATXII
T3 construct: expressed in transfected cells
Source text: as §1
The parameters measured were the maximum inward current (charge) evoked on stepping to −15mV from the test pulse in the presence of 30 nM ATXII. The peak and ramp current (charge) amplitude was calculated before and after compound addition and the amount of current (charge) was assessed by dividing the Test compound current (charge) by the Control current (charge). Control is the mean hNav1.5 late current (charge) collected 15 seconds at the end of the control (30 nM ATXII); Test Compound is the mean hNav1.5 current (charge) collected in the presence of test compound and 30 nM ATXII at each concentration. The positive control was ranolizine.

Nav site 2 = assay: Off-target safety panel, Nav site 2; type: binding; conditions: duplicate
Procedure: Potential off-target pharmacology for compound 6 was also evaluated by screening in duplicate against a panel (Bowes, J., et al., Reducing Safety-Related Drug Attrition: The Use of in vitro Pharmacological Profiling. Nat. Rev. Drug Disc. 2012, 11, 909-922) of 44 receptors, enzymes, etc. Of the 44 potential targets, only five were inhibited by >50% at a concentration of 100 μM (Table 7).

HepaRG cells = assay: ATP viability cytotoxicity assay in HepaRG cells; type: cell-based; conditions: 24 hours
Procedure: The cytotoxicity of compound 6 was measured using an ATP viability assay in HepaRG cells, with a five-point concentration-response curve (Table 8).
HepaRG cells were plated in a collagen coated 96-well plate overnight and treated the next day with test compounds and controls for 24 hours. Tamoxifen was used as a positive control compound for cytotoxicity (25 μM). After 24 hours, the plate was equilibrated to room temperature for 30 minutes and Cell Titer-Glo Reagent was added. Luminescence was measured using an EnSpire multimode plate reader. Data were reported as % cytotoxi city compared to vehicle treated control.
Cytotoxicity was determined by calculating the percentage of vehicle control: […]

physchem = type: physicochemical; conditions: aqueous buffer, kinetic from dmso stock; buffered aqueous solution (pH 7.4)
Procedure: Test compounds were prepared at 10 mM in 100% DMSO and diluted into aqueous buffer, pH 7.4, to achieve a final test compound concentration of 100 μM with a final DMSO concentration of 1%. Caffeine and tamoxifen were assayed as control compounds. The samples were shaken for 90 minutes at room temperature and then filtered through a 0.4 μm filter plate. Filtrates were collected and analyzed using LC-MS/MS.

Caco-2 cells = type: in vitro ADME; conditions: human, Caco-2, 10 μM, pH 7.4
Procedure: Caco-2 cells were plated on Transwell inserts and permeability assays were performed at day 21-25 post-plating. A single concentration of test compound (10 μM final) was prepared in HSS-HEPES buffer (pH 7.4) with a final DMSO concentration of 0.1%. To determine apical to basolateral (A to B) transport, test compounds were applied to the apical compartment in the presence and absence of the P-gp inhibitor verapamil (100 μM final). Atenolol and caffeine were assayed as control compounds. Samples were collected at various time points and analyzed using LC-MS/MS methods to determine the apparent permeability coefficient (Papp), efflux ratio, and recovery of the test compound.
Transport in the opposite direction (B to A) was also determined.

CYP2C19 = biological target: T4, CYP2C19 (Homo sapiens, UniProt P33261); assay: CYP450 inhibition in human liver microsomes, CYP2C19; type: in vitro ADME; conditions: 10 μM
T4 construct: incubated with human liver microsomes (mixed gender, pool of 50 donors, 0.1 mg/mL); from tissue; host or cells: human liver microsomes, pool of 50 donors
Procedure: CYP450 inhibition assays was conducted using individual enzyme substrates and inhibitors instead of a cocktail to avoid interferences. CYP450 isoforms tested included the following: CYP1A2, CYP2B6, CYP2C8, CYP2C9, CYP2C19, CYP2D6, and CYP3A4. Each test compound was screened at a final concentration of 10 μM. Each test compound was incubated with human liver microsomes (mixed gender, pool of 50 donors, 0.1 mg/mL), CYP450-selective probe substrates, and co-factors (NADPH, MgCl2) in phosphate buffer (pH 7.4) for 10-30 min in a 96-well plate at 37° C. The reactions were stopped by transferring the reaction mixture to acetonitrile/methanol. Samples were mixed and centrifuged, and the supernatants analyzed by LC-MS/MS to quantify percent inhibition relative to vehicle control.

T2 sequence (Q13936 whole entry): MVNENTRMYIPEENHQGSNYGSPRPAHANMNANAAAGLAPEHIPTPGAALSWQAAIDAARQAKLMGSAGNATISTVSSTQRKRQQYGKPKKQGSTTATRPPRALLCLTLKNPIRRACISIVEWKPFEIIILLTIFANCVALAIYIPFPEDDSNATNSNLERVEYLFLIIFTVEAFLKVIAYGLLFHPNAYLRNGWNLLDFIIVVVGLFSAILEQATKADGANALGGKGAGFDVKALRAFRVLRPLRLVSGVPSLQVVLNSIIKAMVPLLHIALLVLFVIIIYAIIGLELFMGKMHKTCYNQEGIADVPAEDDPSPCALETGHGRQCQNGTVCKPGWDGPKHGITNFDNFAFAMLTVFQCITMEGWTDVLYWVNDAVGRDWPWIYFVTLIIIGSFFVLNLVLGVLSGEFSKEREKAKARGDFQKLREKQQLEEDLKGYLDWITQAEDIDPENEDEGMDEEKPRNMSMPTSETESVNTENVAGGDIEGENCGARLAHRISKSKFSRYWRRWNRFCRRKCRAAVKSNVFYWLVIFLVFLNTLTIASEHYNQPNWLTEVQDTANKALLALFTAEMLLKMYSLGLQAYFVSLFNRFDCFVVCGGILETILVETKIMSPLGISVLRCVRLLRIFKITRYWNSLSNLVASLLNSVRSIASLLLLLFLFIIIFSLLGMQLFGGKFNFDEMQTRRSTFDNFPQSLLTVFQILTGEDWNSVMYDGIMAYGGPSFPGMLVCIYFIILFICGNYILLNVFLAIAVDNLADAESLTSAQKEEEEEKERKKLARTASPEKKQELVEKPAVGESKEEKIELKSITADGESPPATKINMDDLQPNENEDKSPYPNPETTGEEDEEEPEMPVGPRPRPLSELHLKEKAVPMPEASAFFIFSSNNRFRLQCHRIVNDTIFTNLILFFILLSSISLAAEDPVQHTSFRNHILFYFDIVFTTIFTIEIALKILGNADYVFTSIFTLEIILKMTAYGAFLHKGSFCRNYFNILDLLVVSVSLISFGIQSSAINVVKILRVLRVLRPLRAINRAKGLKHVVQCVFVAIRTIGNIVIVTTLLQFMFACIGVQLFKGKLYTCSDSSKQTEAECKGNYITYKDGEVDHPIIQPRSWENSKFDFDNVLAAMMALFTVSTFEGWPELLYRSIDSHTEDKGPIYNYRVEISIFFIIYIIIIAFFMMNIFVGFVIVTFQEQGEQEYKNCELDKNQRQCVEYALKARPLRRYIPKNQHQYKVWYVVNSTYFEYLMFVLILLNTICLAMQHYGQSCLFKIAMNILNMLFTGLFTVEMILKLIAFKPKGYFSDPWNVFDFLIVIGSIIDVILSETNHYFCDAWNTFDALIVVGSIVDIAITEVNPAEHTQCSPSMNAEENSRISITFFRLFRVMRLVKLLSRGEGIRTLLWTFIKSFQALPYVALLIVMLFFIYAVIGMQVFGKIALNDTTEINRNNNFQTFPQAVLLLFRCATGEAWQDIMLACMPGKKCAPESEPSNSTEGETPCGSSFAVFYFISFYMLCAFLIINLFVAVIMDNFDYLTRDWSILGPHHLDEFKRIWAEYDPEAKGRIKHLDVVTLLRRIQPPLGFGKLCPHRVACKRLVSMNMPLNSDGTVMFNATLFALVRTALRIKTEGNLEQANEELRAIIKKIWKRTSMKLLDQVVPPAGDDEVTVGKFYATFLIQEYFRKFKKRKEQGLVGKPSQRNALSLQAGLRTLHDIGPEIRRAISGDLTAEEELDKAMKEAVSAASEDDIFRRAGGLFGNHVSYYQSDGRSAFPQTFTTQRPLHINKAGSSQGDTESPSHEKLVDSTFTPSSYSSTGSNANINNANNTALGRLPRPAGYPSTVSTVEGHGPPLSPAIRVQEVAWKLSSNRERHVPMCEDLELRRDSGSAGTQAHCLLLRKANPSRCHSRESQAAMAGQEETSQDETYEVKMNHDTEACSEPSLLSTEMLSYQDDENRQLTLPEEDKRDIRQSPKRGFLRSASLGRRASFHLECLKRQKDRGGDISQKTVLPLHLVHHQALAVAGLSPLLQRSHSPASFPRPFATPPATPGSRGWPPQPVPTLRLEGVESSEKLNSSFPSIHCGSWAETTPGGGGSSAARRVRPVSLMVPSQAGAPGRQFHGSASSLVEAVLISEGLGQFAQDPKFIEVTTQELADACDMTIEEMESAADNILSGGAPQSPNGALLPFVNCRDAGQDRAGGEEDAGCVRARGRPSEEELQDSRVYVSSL
T2 sequence (Q08289 whole entry partner): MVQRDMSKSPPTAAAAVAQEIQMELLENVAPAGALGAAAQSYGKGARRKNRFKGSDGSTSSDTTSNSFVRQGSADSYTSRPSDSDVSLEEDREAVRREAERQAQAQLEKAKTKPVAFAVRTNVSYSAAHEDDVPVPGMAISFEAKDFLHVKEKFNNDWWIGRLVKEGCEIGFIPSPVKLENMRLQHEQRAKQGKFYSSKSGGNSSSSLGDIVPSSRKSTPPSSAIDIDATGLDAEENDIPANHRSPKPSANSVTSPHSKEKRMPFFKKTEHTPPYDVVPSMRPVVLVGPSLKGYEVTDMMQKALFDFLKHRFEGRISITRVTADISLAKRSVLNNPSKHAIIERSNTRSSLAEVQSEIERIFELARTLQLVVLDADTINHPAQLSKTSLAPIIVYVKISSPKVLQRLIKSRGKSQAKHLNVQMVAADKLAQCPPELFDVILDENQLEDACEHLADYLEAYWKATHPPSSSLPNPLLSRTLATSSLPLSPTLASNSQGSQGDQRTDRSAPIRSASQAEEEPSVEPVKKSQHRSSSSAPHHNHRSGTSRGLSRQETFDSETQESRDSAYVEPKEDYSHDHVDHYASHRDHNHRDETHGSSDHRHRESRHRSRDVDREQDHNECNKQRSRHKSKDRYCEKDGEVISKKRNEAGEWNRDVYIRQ
T2 sequence (P54289 25-946 partner limits assumed): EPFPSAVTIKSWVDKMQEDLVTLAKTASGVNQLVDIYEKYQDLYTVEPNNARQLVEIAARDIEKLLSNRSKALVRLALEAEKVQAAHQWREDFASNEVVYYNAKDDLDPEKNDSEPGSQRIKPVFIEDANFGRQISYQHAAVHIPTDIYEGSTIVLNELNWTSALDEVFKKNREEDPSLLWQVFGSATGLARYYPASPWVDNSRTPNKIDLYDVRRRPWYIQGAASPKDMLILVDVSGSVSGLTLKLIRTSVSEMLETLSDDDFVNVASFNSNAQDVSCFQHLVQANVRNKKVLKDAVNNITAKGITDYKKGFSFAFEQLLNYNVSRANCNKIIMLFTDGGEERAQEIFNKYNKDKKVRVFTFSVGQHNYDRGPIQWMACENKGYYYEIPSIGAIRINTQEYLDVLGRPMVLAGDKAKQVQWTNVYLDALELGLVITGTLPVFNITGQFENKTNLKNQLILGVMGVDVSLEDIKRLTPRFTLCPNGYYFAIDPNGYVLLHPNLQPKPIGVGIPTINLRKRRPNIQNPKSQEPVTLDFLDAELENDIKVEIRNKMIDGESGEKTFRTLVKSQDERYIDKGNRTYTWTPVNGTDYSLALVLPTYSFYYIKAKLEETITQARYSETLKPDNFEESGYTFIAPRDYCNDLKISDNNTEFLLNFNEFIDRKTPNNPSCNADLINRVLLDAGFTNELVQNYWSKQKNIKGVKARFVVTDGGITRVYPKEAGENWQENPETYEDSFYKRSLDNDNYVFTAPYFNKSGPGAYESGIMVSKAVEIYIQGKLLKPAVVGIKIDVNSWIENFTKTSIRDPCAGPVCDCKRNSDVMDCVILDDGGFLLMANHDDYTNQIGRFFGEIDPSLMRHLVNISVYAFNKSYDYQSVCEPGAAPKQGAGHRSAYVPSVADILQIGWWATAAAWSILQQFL
T2 sequence (P54289 947-1103 partner limits assumed): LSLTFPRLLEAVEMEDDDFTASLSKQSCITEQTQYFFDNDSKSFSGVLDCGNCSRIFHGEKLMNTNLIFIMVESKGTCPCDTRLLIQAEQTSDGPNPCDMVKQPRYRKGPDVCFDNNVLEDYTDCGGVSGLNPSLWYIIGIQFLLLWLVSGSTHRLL
T4 sequence (P33261 whole entry): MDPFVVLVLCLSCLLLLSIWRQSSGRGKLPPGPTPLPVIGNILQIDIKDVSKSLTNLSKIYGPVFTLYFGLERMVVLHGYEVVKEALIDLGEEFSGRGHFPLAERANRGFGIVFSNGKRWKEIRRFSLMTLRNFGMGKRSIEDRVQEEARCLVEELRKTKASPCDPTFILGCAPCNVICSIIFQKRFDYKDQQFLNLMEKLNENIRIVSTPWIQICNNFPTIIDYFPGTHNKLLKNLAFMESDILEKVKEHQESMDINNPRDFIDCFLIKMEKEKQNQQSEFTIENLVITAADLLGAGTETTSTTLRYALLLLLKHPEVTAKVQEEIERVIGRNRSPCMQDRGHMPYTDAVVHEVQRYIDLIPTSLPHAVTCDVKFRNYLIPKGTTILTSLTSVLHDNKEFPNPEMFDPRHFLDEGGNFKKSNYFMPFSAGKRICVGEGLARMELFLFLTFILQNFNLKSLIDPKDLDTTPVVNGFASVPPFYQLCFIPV

Compound: COc1ccc2ncc(F)c(CC[C@@]3(O)CO[C@@H]4[C@@H](NCc5cc6c(cn5)OCCO6)CO[C@@H]43)c2n1 [Compound 6, (3R, 3aS,6S,6aR)-6-(((2,3-dihydro-[1,4]dioxino[2,36-c]pyridin-7-yl)methyl)amnino)-3-(2-(3-fluoro-6-methoxy-1,5-naphthyridin-4-yl)ethyl)hexahydrofuro[3,2-b]furan-3-ol]
- inhibition at 3 µM (hKCNQ1/hminK; 3 μM): -2.9%
- inhibition at 30 µM (hKCNQ1/hminK; 30 μM): 1.5%
- inhibition at 100 µM (hKCNQ1/hminK; 100 μM): 22.1%
- % Inhibition Cav1.2 (peak current) ([1]; 3 μM): 4.7%
- % Inhibition Cav1.2 (peak current) ([1]; 30 μM): 23.3%
- % Inhibition Cav1.2 (peak current) ([1]; 100 μM): 24.9%
- % Inhibition Nav1.5 Late (antagonist - inhibition of ATXII EC50 current) ([2]; 3 μM): 4.3%
- % Inhibition Nav1.5 Late (antagonist - inhibition of ATXII EC50 current) ([2]; 30 μM): 19.1%
- % Inhibition Nav1.5 Late (antagonist - inhibition of ATXII EC50 current) ([2]; 100 μM): 50.9%
- % Inhibition at 100 μM conc., Nav site 2 (Nav site 2): 78%
- % Cytotoxicity (HepaRG cells; 0.01 μM): 6%
- % Cytotoxicity (HepaRG cells; 0.1 μM): 4%
- % Cytotoxicity (HepaRG cells; 1 μM): 9%
- % Cytotoxicity (HepaRG cells; 10 μM): 8%
- solubility kinetic (physchem): 76.2 µM (≈ 38 µg/mL)
- Caco-2 permeability A→B (Caco-2 cells): 10.8 ×10⁻⁶ cm/s
- Caco-2 permeability B→A (Caco-2 cells): 85.3 ×10⁻⁶ cm/s
- CYP2C19 inhibition (CYP2C19): Less than 50%
